The results in this text go back to patent publication US9375426B2, “Method of screening anti-plasmodial activity of acriflavin and acriflavin as an anti-malarial agent” (priority 2012, dated 2016).

One data set relates to Plasmodium berghei. The method, then:
FIG. 2: In vivo measurement of parasite killing ability of Acriflavin.
This is further described hereinafter as Example 3.
The mice were divided into three groups (each group had 4 mice). For four consecutive days, group I was injected subcutaneously with 5 mg Acriflavin/kg body weight; group II received 5 mg Chloroquine/kg body weight and the group III received no drug and served as control in this experiment. Every alternate day the parasitemia from the tail blood was calculated. […] The mouse groups were kept under observation for 3 weeks after the drug treatment.

The test system of data set [1] is malaria parasite in vitro. Nature of the data set: Anti-malarial property of Acriflavin vs Proflavin in vitro (parasitemia at end of first life cycle). It counts as cell-based, Plasmodium falciparum. To be noted: 100 nM and 250 nM drug concentrations. The method, then: FIG. 1: Effect of Acriflavin on in vitro growth of 3D7 and W2 strains. Synchronized chloroquine susceptible 3D7 (A) and Chloroquine resistant W2 (B) parasites at ring stage (˜16-20 hrs) were treated with 20 nM to 100 nM of Acriflavin and parasitemia were counted at different time points (post-treatment) as indicated. (C) In each case, parasitemia were determined at the end of the first life cycle and plotted against different concentrations of Acriflavin/Proflavin. Each point/column represents the parasitemia of the mean of triplicates with standard deviations. […] Parasite growth inhibition was assessed by microscopy of giemsa stained smear at different time points as indicated.
Acriflavin is a mixture of 3,6-diamino-10-methylacridinium chloride (Trypflavin) and 3,6-diaminoacridine (Proflavin). […] After the Acriflavin treatment, the parasitemia was calculated in each case. Further, the anti-malarial property of Acriflavin vs Proflavin was also evaluated.
To determine the antimalarial activity of Acriflavin in vitro, synchronised ring stage, Chloroquine sensitive (3D7) and Chloroquine resistant (W2) P. falciparum (˜2.5% parasitemia) parasites were incubated with a range of Acriflavin concentrations (0-100 nM). After 40 hours of the Acriflavin treatment, the parasitemia was calculated in each case. […]

In the case of “mixture of 3,6-diamino-10-methylacridinium chloride (Trypflavin) and 3,6-diaminoacridine (Proflavin) [Acriflavin]”, the “drug-related effects on body weight or general condition of animals” value in the data set with Plasmodium berghei (mouse, in vivo) was “No drug-related effects”.
For `Nc1ccc2cc3ccc(N)cc3nc2c1` [Proflavin, 3,6-diaminoacridine], in data set [1], the “anti-malarial property against malaria parasite in vitro” value is recorded as “ineffective”.
As to `CCN(CC)CCCC(C)Nc1ccnc2cc(Cl)ccc12` (stereo not shown) [Chloroquine], the “parasitemia at the end of day 6” value in the data set on Plasmodium berghei (5 mg/kg body weight subcutaneously, four consecutive days, tail blood, untreated control 16%) amounted to 0.33%. In addition, the survivability rate with Plasmodium berghei (5 mg/kg s.c. for four days, 3 weeks observation after treatment, untreated control 25%) was 75%.
